Results reported in patent US8685369B2, “Technetium- and rhenium-bis (heteroaryl) complexes, and methods of use thereof” (priority 2004, dated 2014).

Assay type: physicochemical
Protocol: The stability and robustness of the technetium-di(pyridine) complexes was assessed using challenges with free cysteine and histidine. Specifically, the experiments were performed using [^99mTc(CO)3(dipyridinemethylamine)]^+1.
[^99mTc(CO)3(H2O)3]^+ was heated with [{N,N-di(pyridyl-2-methyl)}N-butyl-phthalimide in 0.5 mL (1 mg/mL) of methanol at 100° C. for 60 minutes. […] The product eluted with methanol at 20.8 minutes. The HPLC analysis was performed using a Supelco C18 column, 25 cm×4.6 mm column (5 μm pore size), equipped with 2 cm guard using solvent A=0.05 M triethylammonium phosphate buffer pH 2.5 and solvent B=methanol. The method employed was a gradient 5-95% B, 1 mL/minute for 30 minutes. The gradient ramped from 5-95 from 3-20 minutes.

Substance: [^99mTc(CO)3(dipyridinemethylamine)]^+1
- stability in challenges with free cysteine and histidine: stable
- change in the components by HPLC on incubation with cysteine (aqueous solution, cysteine, 18 hours at 37° C. at pH 7.4): no significant change
